Here are results for 13 compounds from patent US5972963A, “3-aryl-2-(1-substituted 4-piperidinyl)-1,1-dioxo-3H-benzo[D]isothiazoles and related compounds” (Hoechst Marion Roussel, Inc., priority 1997, dated 1999).

In assay [1] the test system is dopamine (DA) uptake, rat striatal synaptosomes. Description: Inhibition of ^3 H-Dopamine Uptake in Rat Striatal Synaptosomes. Type of assay: biochemical. To be noted: at 3.16 μmn; head: whole brain synaptosomes, protocol: striatal synaptosomes. As to the method: Inhibition of ^3 H-Dopamine Uptake in Rat Striatal Synaptosomes
this assay is used to show differential drug effects on dopamine uptake versus nerepppinephrine uptake and to identify therapeutic agents for diseases where the potentiation of dopaminergic activity may be helpful (e.g. Parkinson's Disease).
(§1) A. Animals: Male CR Wistar rats (100-125 g).
3. Dopamine HCl is obtained from Sigma Chemical Co. A 0.1 mM stock solution is made up in 0.01 N HCl. This is used to dilute the specific activity of radiolabeled 5 HT.
4. 3,4-[8-^3 H(N)]-Dihydroxyphenylethylamine (Dopamine), specific activity 4-34 Ci/mmol is obtained from New England Nuclear.
The final desired concentration of ^3 H-DA in the assay is 50 nM. The dilution factor is 0.9. Therefore, the KHBB is made up to contain 55.5 nM [^3 H]-5 DA.
(§2) 5. For most assays, a 1 mM stock solution of the test compound is made up in a suitable solvent and serially diluted such that the final concentration in the assay ranges from 2×10^-8 to 2×10^-5 M. Seven concentrations are used for each assay. Higher or lower concentrations may be used depending on the potency of the compound.
Male Wistar rats are decapitated and the brain rapidly removed. Corpora striata are rapidly removed, weighed and homogenized in 9 volumes of ice-cold 0.32 M sucrose using a Potter-Elvejhem homogenizer. Homogenization should be done with 4-5 up and down strokes at medium speeds to minimize synaptosome lysis. The homogenate is centrifuged at 1000 g for 10 minutes at 0°-4° C. The supernatant (S) is decanted and is used for uptake experiments.
(§3) 20 μl Vehicle or appropriate drug concentration
(§4) Tubes are incubated at 37° C. under a 95% O2 /5% CO2 atmosphere for 5 minutes. For each assay, 3 tubes are incubated with 20 μl of vehicle at 0° C. in an ice bath. After incubation all tubes are immediately centrifuged at 4000 g for 10 minutes. The supernatant fluid is aspirated and the pellets dissolved by adding 1 ml of solubilizer (Triton X-100+50% EtOH, 1:4 v/v). The tubes are vigorously vortexed, decanted into scintillation vials, and counted in 10 ml of Liquiscint scintillation counting cocktail. Active uptake is the difference between cpm at 37° C. and 0° C. The percent inhibition at each drug concentration is the mean of three determinations. IC50 values are derived from log-probit analysis.

Assay [2] concerns norepinephrine (NE) uptake, rat whole brain synaptosomes. The assay can be described thus: Inhibition of [^3 H]-Norepinephrine Uptake in Rat Whole Brain or Hypothalamic Synaptosomes. To be noted: at 3.16 μmn. The assay is classed as biochemical. How it is done: Inhibition of [^3 H]-Norepinephrine Uptake in Rat Whole Brain or Hypothalamic Synaptosomes
This assay is used as a biochemical screen for potential antidepressants which block norepinephrine uptake.
as §1
3. L(-)-Norepinephrine bitartrate is obtained from Sigma Chemical Co. A 0.1 mM stock solution is made up in 0.01 N HCl. This is used to dilute the specific activity of theradiolabeled NE.
4. Levo-[Ring-2,5,6-^3 H]-Norepinephrine (40-50 Ci/mmol) is obtained from New England Nuclear.
The final desired concentration of [^3 H]-NE in the assay is 50 nM. The dilution factor is 0.8. Therefore, the KHBB is made up to contain 62.5 nM [^3 H]-NE.
as §2
Male Wistar rats are decapitated and the brain rapidly removed. Either whole brain minus cerebella or hypothalamus is weighed and homogenized in 9 volumes of ice-cold 0.32 M sucrose using a Potter-Elvejhem homogenizer. Homogenization should be done with 4-5 up and down strokes at medium speeds to minimize synaptosome lysis. TH homogenate is centrifuged at 1000 g for 10 minutes at 0°-4° C. The supernatant (S1) is decanted and is used for uptake experiments.
as §3
Tubes are incubated at 37° C., under a 95% O2 /5% CO2 atmosphere for 5 minutes. For each assay, 3 tubes are incubated with 20 μl of vehicle at 0° C. in a ice bath. After incubation all tubes are immediately centrifuged at 4000 g for 10 minutes. The supernatant fluid is aspirated and the pellets dissolved by adding 1 ml of solubilizaer (Triton X-100+50% EtOH, 1:4 v/v). The tubes are vigorously vortexed, decanted into scientillation vials, and counted in 10 ml of Liquiscint scintillation countering cocktail. Active uptake is the difference between cpm at 37° C. and 0C. The percent inhibition at each drug concentration is the mean of three determinations IC50 values are derived from log-probit analysis.

The subject of assay [3] is serotonin (5HT) uptake, rat whole brain synaptosomes. The assay can be described thus: Inhibition of [^3 H]-Serotonin Uptake in Rat Whole Brain Synaptosomes. The assay is classed as biochemical. The note with it: at 3.16 μmn. As to the method: Inhibition of [^3 H]-Serotonin Uptake in Rat Whole Brain Synaptosomes
This assay is used a biochemical screen for compounds which block serotonin (5 HT) uptake, which may be useful as antidepressants and for the treatment of personality disorders such as obsessive compulsive disorder.
as §1
3. Serotonin creatinine SO4 is obtained from Sigma Chemical Co. A 0.1 mM stock solution is made up in 0.01 N HCl. This is used to dilute the specific activity of radiolabeled 5 HT.
4. 5-[1,2-^3 H(N)]-Hydroxytryptamine creatinine sulfate (Serotonin), specific activity 20-30 Ci/mmol is obtained from New England Nuclear.
The final desired concentration of ^3 H-5 HT in the assay is 50 nM. The dilution factor is 0.8. Therefore, the KHBB is made up to contain 62.5 nM [^3 H]-5 HT.
5. For most assays, a 1 mM solution of the test compound is made up in suitable solvent and serially diluted such that the final concentration in the assay ranges from 2×10^-8 to 2×10^-5 M. Seven concentrations are used for each assay. Higher or lower concentrations may be used depending on the potency of the compound.
Male Wistar rats are decapitated and the brain rapidly removed. Whole brain minus cerebella is weighed and homogenized in 9 volumes of ice-cold 0.32 M sucrose using a Potter-Elvejhem homogenizer. Homogenization should be done with 4-5 up and down strokes at medium speeds to minimize synaptosome lysis. The homogenate is centrifuged at 1000 g for 10 minutes at 0°-4° C. The supernatant (S1) is decanted and is used for uptake experiments.
800 μl KHBB +[^3 H]-5 HT.
as §3, §4

The test system of another assay is dopamine (DA) uptake. To be noted: cited from earlier work.
In another assay the test system is 5 HT uptakes sites. To be noted: in vitro receptor binding, literature; cited from earlier work.
Assay [4] concerns norepinephrine (NE) uptake. To be noted: literature; cited from earlier work.
The next assay concerns serotonin (5 HT) uptake. The note with it: literature; cited from earlier work.

Counter-ions that a name gives are not always drawn. Like-named read-outs stand apart in the source and are kept apart here.

For `COc1cc(C(C)=O)ccc1OCCCN1CCC(N2C(c3ccc(Cl)cc3)c3ccccc3S2(=O)=O)CC1` (centres unmarked) [1-[4-(3-{4-[3-(4-Chlorophenyl)-1,1-dioxo-3H-benzo[d]isothiazol-2-yl]-1-piperidin-1-yl}-propoxy)-3-methoxyphenyl]-ethanone maleate], the “% inhibition DA” value in assay [1] turned out to be 67.94%. Moreover, the “% inhibition NE” value in assay [2] came out at 55.23%. For the same compound, in assay [3], the “% inhibition 5HT” value is 48.78%.

Consider `C[C@@H](N)Cc1ccccc1` [1-amphetamine], for which the “DA uptake inhibition” value in the assay with dopamine (DA) uptake (literature) is “no stereo selectivity for the inhibition of DA uptake”.

With `O=C(O)/C=C\C(=O)O.O=C1c2ccccc2C(=O)N1CCCN1CCC(N2C(c3ccc(Cl)cc3)c3ccccc3S2(=O)=O)CC1` (centres unmarked) [2-(3-{4-[3-(4-Chlorophenyl)-1,1-dioxo-3H-benzo[d]isothiazol-2-yl]piperidin-1-yl}propyl)-isoindol-1,3-dione maleate], in assay [1], the “% inhibition DA” value was determined as 57.36%. In addition, the “% inhibition NE” value in assay [2] came to 28.37%. For the same compound, the “% inhibition 5HT” value in assay [3] was determined as 29.02%.

Consider `O=C(O)/C=C\C(=O)O.O=S1(=O)c2ccccc2C(c2ccc(Cl)cc2)N1C1CCN(CCO)CC1` (centres unmarked) [2-{4-[3(4-Chlorophenyl)-1,1-dioxo-3H-benzo[d]isothiazol-2-yl]-piperidin-1-yl}-ethanol maleate], for which, in assay [1], the “% inhibition DA” value was 18.71%. The “% inhibition NE” value in assay [2] is reported as 8.71%. Further, the “% inhibition 5HT” value in assay [3] worked out at 3.68%.

Consider `Cl.O=S1(=O)c2ccccc2C(c2ccc(F)cc2)N1C1CCNCC1` (centres unmarked) [3-(4-Fluorophenyl)-2-(4-piperidinyl)-2,3-dihydrobenzo[d]isothiazole-1,1-dioxide hydrochloride], for which the “% inhibition DA” value in assay [1] stood at 30.34%. Besides, the “% inhibition NE” value in assay [2] is 25.02%. In assay [3], the “% inhibition 5HT” value is listed as 37.92%.

For `CN(C)CCCN1c2ccccc2CCc2ccccc21` [[^3 H]-imipramine], in the assay with 5 HT uptakes sites, the “labelling of 5 HT uptake sites” value is on record as “labels 5 HT uptakes sites”.

As for `CC(NC(C)(C)C)C(=O)c1cccc(Cl)c1` (centres unmarked) [bupropion], the “DA uptake inhibition” value in the assay with dopamine (DA) uptake (literature) is on record as “inhibit DA uptake”.

With `COC(=O)[C@H]1[C@@H](OC(=O)c2ccccc2)C[C@@H]2CC[C@H]1N2C` [cocaine], in assay [4], the “NE uptake inhibition” value is reported as “potently inhibited”. Also, the “DA uptake inhibition” value with dopamine (DA) uptake (literature) was “potently inhibited”.

As to `C[C@H](N)Cc1ccccc1` [d-amphetamine], the “DA uptake inhibition” value in the assay on dopamine (DA) uptake (literature) is recorded as “no stereo selectivity for the inhibition of DA uptake”.

As to `CNCCCN1c2ccccc2CCc2ccccc21` [desipramine], the “NE uptake inhibition” value in assay [4] is given as “more active than the tertiary amines (e.g. imipramine)”.

Take `C[C@@H]1O[C@@H](O[C@H]2C[C@@H](O)[C@]3(CO)[C@H]4[C@H](O)C[C@]5(C)[C@@H](C6=CC(=O)OC6)CC[C@]5(O)[C@@H]4CC[C@]3(O)C2)[C@H](O)[C@H](O)[C@H]1O` [ouabain]: in assay [4], the “NE uptake inhibition” value is on record as “also inhibited”. For the same compound, the “DA uptake inhibition” value in the assay with dopamine (DA) uptake is listed as “potently inhibited”.

For the compound `CC(COc1ccccc1)N(CCCl)Cc1ccccc1` (centres unmarked) [phenoxybenzarrine], the “NE uptake inhibition” value in assay [4] is reported as “also inhibited”.

In the case of `CN(C)C/C=C(/c1ccc(Br)cc1)c1cccnc1` [zimelidine], the “5 HT uptake inhibition” value with serotonin (5 HT) uptake was “fairly selective effects on 5 HT uptakes”.
